For orientation: Kd means a measure of binding affinity in units of concentration.

Like-named read-outs stand apart in the source and are kept apart here.

The subject of one series is MDA-MB-231 cells. The series is described as follows: Immunoblot of parp (apoptosis) in MDA-MB-231 cells. The class given is cell-based. To be noted: 4 μM and TNFα (20 ng/ml).
The test system of the next series is MDA-MB-231. The series can be described thus: Proliferation of MDA-MB-231 breast cancer cells. The class given is cell-based. Conditions: Homo sapiens.
In series [1] the test system is BT474, ZR-75-1, BT549, HCC1937, HS578T, MCF-7, and T47D. The series can be described thus: Inhibition rate on seven breast cancer cells. The class given is cell-based. Conditions: various breast cancer cells, FIG. 11C.
Series [2] relates to IκBα and phosphorylated IKKα/β. The series is described as follows: Immunoblot of IκBα and phosphorylated IKKα/β in TNFα-treated HepG2 cells. To be noted: TNFα 20 ng/mL 30 minutes. The class given is cell-based. The source says: IκBα and phosphorylated IKKα/β in the cells were then detected by WB.
In addition, HepG2 cells were also applied in the experiment. […] IκBα in the cells was then detected by WB.
A general note: A western blot detects proteins with antibodies after separation by electrophoresis.

A further series has as its system mTOR signaling pathway. The series is described as follows: Immunoblot of p-mTOR, p-P70S6K, p-S6 in TNFα-treated starved MDA-MB-231 cells. Conditions: MDA-MB-231, serum-free 10 h; 2 μM and TNFα (20 ng/ml). It is filed as cell-based.
The next series deals with Nur77-LBD (Homo sapiens, UniProt P22736). The series is described as follows: Surface plasmon resonance (Biacore T200) binding to Nur77-LBD.
Sequence of Nur77-LBD (P22736 360-595 limits assumed): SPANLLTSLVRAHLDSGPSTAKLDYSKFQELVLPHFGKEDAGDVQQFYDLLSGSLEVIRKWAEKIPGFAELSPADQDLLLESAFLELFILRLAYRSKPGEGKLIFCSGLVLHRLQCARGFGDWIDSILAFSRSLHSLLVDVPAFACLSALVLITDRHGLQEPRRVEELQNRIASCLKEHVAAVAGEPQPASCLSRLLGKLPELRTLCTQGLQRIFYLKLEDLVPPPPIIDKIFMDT
In another series the test system is MCF-7. The series can be described thus: Proliferation of MCF-7 breast cancer cells. Conditions: Homo sapiens, read-out: IC50 for inhibiting the proliferation. The class given is cell-based.
A further series has as its system wild-type Hela cells. The series is described as follows: Proliferation of wild-type Hela cells. The class given is cell-based. To be noted: Homo sapiens.
The subject of another series is MDA-MB-468. The series is described as follows: Proliferation of MDA-MB-468 breast cancer cells. The class given is cell-based. To be noted: Homo sapiens, MDA-MB-468, 72 h; read-out: IC50 for inhibiting the proliferation.
A further series has as its system BT549. The series is described as follows: Proliferation of BT549 breast cancer cells. Conditions: Homo sapiens, BT-549; BT549, 72 h; read-out: IC50 for inhibiting the proliferation. The class given is cell-based.
Series [3] in a line: Acute toxicity model mice, histopathology. The class given is in vivo. The source says:
The tissue morphologies of the heart, liver, small intestine, white fat and kidney were observed by Histopathological method.

Another series has as its system SKBR3. The series is described as follows: Proliferation of SKBR3 breast cancer cells. It is filed as cell-based. To be noted: Homo sapiens, SK-BR-3; SKBR3, 72 h; read-out: IC50 for inhibiting the proliferation.
Series [4] relates to Nur77 knocked-out Hela cells. The series is described as follows: Proliferation of Nur77 knocked-out Hela cells. The class given is cell-based. To be noted: Homo sapiens.
The next series relates to T47D. The series is described as follows: Proliferation of T47D breast cancer cells. Conditions: Homo sapiens, 72 h, read-out: IC50 for inhibiting the proliferation. The class given is cell-based.
The mark [5] stands for this setting: MDA-MB-231, FIG. 11B, read-out: IC50 for the inhibition of proliferation.
Setting [6] is: Biacore T200, read-out: dissociation constant (Kd) to Nur77-LBD.
Where [7] appears, read: single intragastric injection 200 mg/kg.
The mark [8] stands for this setting: single intraperitoneal injection 20 mg/kg.

Regarding `COC(=O)[C@]1(C)CC[C@]2(C)CC[C@]3(C)C4=CC=C5C(=CC(=O)C(O)=C5C)[C@]4(C)CC[C@@]3(C)[C@@H]2C1` [XS0077], the “PARP cleavage in comparison with YXY101” value in the series on MDA-MB-231 cells is given as “can more significantly induce PARP cleavage”. In addition, the IC50 with MDA-MB-231 (MDA-MB-231, read-out: IC50 for the inhibition of proliferation) was determined as 1.84 µM.
Turning to `CC1=C(O)C(=O)C=C2C1=CC=C1[C@@]2(C)CC[C@@]2(C)[C@@H]3C[C@](C)(C(=O)OCc4ccccc4)CC[C@]3(C)CC[C@]12C` [XS0285], the “inhibitory effects on proliferation compared with YXY101” value in series [1] is “close or even stronger than that of YXY101”.
In the case of `COc1ccc(NC(=O)[C@]2(C)CC[C@]3(C)CC[C@]4(C)C5=CC=C6C(=CC(=O)C(O)=C6C)[C@]5(C)CC[C@@]4(C)[C@@H]3C2)cc1` [XS0287], the “TNFα-induced degradation of IκBα” value in series [2] is reported as “capable of inhibiting TNFα-induced degradation of IκBα”.
Regarding `Cc1c(O)c(O)cc2c1CCC1[C@@]2(C)CC[C@@]2(C)[C@@H]3C[C@](C)(C(=O)O)CC[C@]3(C)CC[C@]12C` (stereo partly shown) [XS0335], the IC50 with MDA-MB-231 (setting [5]) was found to be 1.88 µM. Moreover, the “P-mTOR, P-p70S6K, and P—S6 in comparison with YXY101” value (“P-mTOR, P-p70S6K, and P—S6” for short) in the series with mTOR signaling pathway is “can more significantly reduce P-mTOR, P-p70S6K, and P—S6”.
`CCOC(=O)OC1=C(C)C2=CC=C3[C@@](C)(CC[C@@]4(C)[C@@H]5C[C@](C)(C(=O)O)CC[C@]5(C)CC[C@]34C)C2=CC1=O` [XS0394]: at Nur77-LBD (setting [6]), the dissociation constant Kd was 1.26 µM. In addition, in the series on mTOR signaling pathway, the “P-mTOR, P-p70S6K, and P—S6” value was “can more significantly reduce P-mTOR, P-p70S6K, and P—S6”.
For `CCOC(=O)COC(=O)[C@]1(C)CC[C@]2(C)CC[C@]3(C)C4=CC=C5C(=CC(=O)C(O)=C5C)[C@]4(C)CC[C@@]3(C)[C@@H]2C1` [XS0418], the “PARP cleavage in comparison with YXY101” value in the series with MDA-MB-231 cells is reported as “can more significantly induce PARP cleavage”. Further, the equilibrium dissociation constant (Kd) at Nur77-LBD (setting [6]) was 3.67 µM. For the same compound, the “P-mTOR, P-p70S6K, and P—S6” value in the series with mTOR signaling pathway was “can more significantly reduce P-mTOR, P-p70S6K, and P—S6”. Moreover, in series [1], the “inhibitory effects on proliferation compared with YXY101” value is “close or even stronger than that of YXY101”.
Take `Cc1c(O)c(O)cc2c1CC=C1[C@@]2(C)CC[C@@]2(C)[C@@H]3C[C@](C)(C(=O)O)CC[C@]3(C)CC[C@]12C` [XS0419]: the “PARP cleavage in comparison with YXY101” value with MDA-MB-231 cells is “can more significantly induce PARP cleavage”. In addition, the IC50 with MDA-MB-231 (setting [5]) turned out to be 1.27 µM. The same compound displayed an equilibrium dissociation constant (Kd) on Nur77-LBD of 0.404 µM. Besides, the “P-mTOR, P-p70S6K, and P—S6” value with mTOR signaling pathway was “can more significantly reduce P-mTOR, P-p70S6K, and P—S6”. The “inhibitory effects on proliferation compared with YXY101” value in [1] is recorded as “close or even stronger than that of YXY101”.
Regarding `CCOC(=O)[C@]1(C)CC[C@]2(C)CC[C@]3(C)C4=CC=C5C(=CC(=O)C(O)=C5C)[C@]4(C)CC[C@@]3(C)[C@@H]2C1` [XS0462], in series [1], the “inhibitory effects on proliferation compared with YXY101” value is “close or even stronger than that of YXY101”.
In the case of `[2H]C1C=C2[C@@](C)(CC[C@@]3(C)[C@@H]4C[C@](C)(C(=O)O)CC[C@]4(C)CC[C@]23C)c2cc(O)c(O)c(C)c21` (stereo partly shown) [XS0474], the IC50 in the series with MDA-MB-231 (setting [5]) came out at 2.93 µM. Further, the Kd on Nur77-LBD worked out at 2.6 µM. The “P-mTOR, P-p70S6K, and P—S6” value with mTOR signaling pathway is “can more significantly reduce P-mTOR, P-p70S6K, and P—S6”.
For `COP(=O)(OC)OC(=O)[C@]1(C)CC[C@]2(C)CC[C@]3(C)C4=CC=C5C(=CC(=O)C(O)=C5C)[C@]4(C)CC[C@@]3(C)[C@@H]2C1` [XS0486], the “P-mTOR, P-p70S6K, and P—S6” value in the series with mTOR signaling pathway is “can more significantly reduce P-mTOR, P-p70S6K, and P—S6”.
`CCCC(=O)OC1=C(C)C2=CC=C3[C@@](C)(CC[C@@]4(C)[C@@H]5C[C@](C)(C(=O)OC)CC[C@]5(C)CC[C@]34C)C2=CC1=O` [XS0488]: the IC50 in the series with MDA-MB-231 (setting [5]) came to 1.9 µM. The dissociation constant Kd at Nur77-LBD (setting [6]) amounted to 1.28 µM. The “inhibitory effects on proliferation compared with YXY101” value in [1] was “close or even stronger than that of YXY101”.
On Nur77-LBD, `CCOP(=O)(OCC)OC(=O)[C@]1(C)CC[C@]2(C)CC[C@]3(C)C4=CC=C5C(=CC(=O)C(O)=C5C)[C@]4(C)CC[C@@]3(C)[C@@H]2C1` [XS0491] returned a dissociation constant (Kd) of 0.336 µM. For the same compound, the “P-mTOR, P-p70S6K, and P—S6” value in the series with mTOR signaling pathway was “can more significantly reduce P-mTOR, P-p70S6K, and P—S6”.
`CC1=C(O)C(=O)C=C2C1=CC=C1[C@@]2(C)CC[C@@]2(C)[C@@H]3C[C@](C)(C(=O)OP(=O)(OC(C)C)OC(C)C)CC[C@]3(C)CC[C@]12C` [XS0492]: the “PARP cleavage in comparison with YXY101” value in the series on MDA-MB-231 cells is listed as “can more significantly induce PARP cleavage”. Moreover, on Nur77-LBD (setting [6]), the Kd turned out to be 1.3 µM. For the same compound, in the series with mTOR signaling pathway, the “P-mTOR, P-p70S6K, and P—S6” value is “can more significantly reduce P-mTOR, P-p70S6K, and P—S6”.
On to `Cc1c(O)c(O)cc2c1CC=C1[C@@]2(C)CC[C@@]2(C)[C@@H]3C[C@](C)(CO)CC[C@]3(C)CC[C@]12C` [XS0503], for which the IC50 in the series with MDA-MB-231 (MDA-MB-231, 24 h, read-out: IC50 for inhibiting the proliferation) was determined as 1.19 µM; in the series with MCF-7 (MCF7, MCF-7, 24 h), 2.65 µM.
`COC(=O)[C@]1(C)CC[C@]2(C)CC[C@]3(C)C4=CC(S(=O)(=O)[O-])c5c(cc(O)c(O)c5C)[C@]4(C)CC[C@@]3(C)[C@@H]2C1.[Na+]` (stereo partly shown) [XS0508]: in the series on MDA-MB-231 cells, the “PARP cleavage in comparison with YXY101” value is “can more significantly induce PARP cleavage”.
In the case of `CC1=C(O)C(=O)C=C2C1=CC=C1[C@@]2(C)CC[C@@]2(C)[C@@H]3C[C@](C)(C(=O)O)CC[C@]3(C)CC[C@]12C` [YXY101, Celastrol], the IC50 was determined as 1.19 µM in the series on wild-type Hela cells; 0.187 µM in the series on MDA-MB-468; 0.245 µM with BT549; 1.2 µM with MDA-MB-231 (MDA-MB-231, 72 h, read-out: IC50 for inhibiting the proliferation); 11.5 µM with MCF-7 (MCF7, 72 h); 2.65 µM in the series with SKBR3. Besides, the IC50 in series [4] was 58.2 µM; in the series with T47D it was 74.5 µM. For the same compound, the adipose tissue morphology entry in series [3] (setting [7]) was “the adipose tissue cells were arranged disorderly and some of the fibers were broken”; in series [3] (setting [8]), “the adipose tissue cells were arranged disorderly and had many inflammatory cell infiltration”. Further, the heart tissue morphology entry in series [3] (setting [7]) and in [3] (setting [8]) was “arranged disorderly” each time. Further, the liver tissue morphology result in series [3] (setting [7]) was “the lobuli hepatis boundaries were blurred, the cytoplasm was reduced, and most of the hepatocytes died”; in [3] (setting [8]), “the lobuli hepatis had substantially obvious boundaries, the hepatocytes were plump and had normal morphology”. Moreover, in series [3] (setting [7]), the “small intestine tissue morphology” value is “the intestinal tissue was swollen apparently, the cell death increases, the inflammatory reaction was obvious, the intestinal villi were arranged disorderly”. Moreover, the kidney tissue morphology entry in series [3] (setting [8]) is “the kidney tissue had blurred glomerulus boundaries and many inflammatory cell infiltration, and the arrangement was not neat”.

The values are drawn from patent publication US10808005B2, “Ligand for orphan nuclear receptor Nur77 and uses thereof” (IXMEDICINE (XIAMEN) BIOLOGICAL TECHNOLOGY COMPANY LIMITED, priority 2016, dated 2020).
